Test results as given in patent US20090222217A1, “Method of calculating environment risk of a chemical in soil” (AMSTED Industries Inc., priority 2008, published 2009).

Tests used:
[1] = sand, Foc 0.0003 mg/mg; Kd=Foc×Koc
Description: To obtain a value to represent the mobility of each compound, two variables are used: Henry's Law constant (H), which focuses on the physical chemistry of the chemical and the retardation factor (R), which focuses on the physical and chemical characteristics of the geological environment. The retardation factor was calculated by first calculating the distribution coefficient using Equation 1.
Values for the organic carbon partition coefficient can be obtained from location-specific testing of soil or from various published sources. And the fraction of organic carbon in soil can be obtained from location-specific testing of soil or from various published sources.

[2] = sand, bulk density 1.8 g/cm^3, effective porosity 0.25
Description: Once the distribution coefficient is calculated, the Retardation Factor can be calculated using Equation 2.
where: R is the retardation factor; ρb=bulk density of aquifer matrix (g/cm^3); Kd=distribution coefficient (mL·g^−1); η=effective porosity

[3] = M=(H)(R), sand
Excerpt: With Henry's Law constant and the retardation factor in place, the mobility of a specific compound is expressed as Equation (4):
where: M=mobility; H=Henry's Law constant; R=retardation factor

[4] = more conservative of carcinogenic or chronic, oral or dermal pathway; published sources; cited from earlier work
[5] = published sources; cited from earlier work

c1ccccc1 [benzene]
Kd, distribution coefficient [1]: 0.0177 mL/g
retardation factor (R) [2]: 1.13
mobility factor (M) [3]: 0.2576
toxicity value (T) [4]: 0.04 mg/kg-day^−1
Henry's Law constant (H) [5]: 0.228 atm.·mol^−1·m^−3
